Measured values as given in patent US7820646B2, “Cyclized derivatives as Eg-5 inhibitors” (Novartis Vaccines and Diagnostics, Inc., priority 2007, dated 2010).

Key:
[1] = biological target: T1, motor domain of human KSP (Eg 5, KNSL1) (Homo sapiens, UniProt P52732); test: Assay for determining KSP activity (microtubule-stimulated ATPase, Biomol Green); conditions: KSP motor domain 45 nM, microtubules 35 μg/mL, 1 hour at RT; read-out: Biochemical Activity IC50
T1 construct: KSP motor protein (i.e., the KSP motor domain); made in house
T1 sequence (P52732 18-359 limits assumed): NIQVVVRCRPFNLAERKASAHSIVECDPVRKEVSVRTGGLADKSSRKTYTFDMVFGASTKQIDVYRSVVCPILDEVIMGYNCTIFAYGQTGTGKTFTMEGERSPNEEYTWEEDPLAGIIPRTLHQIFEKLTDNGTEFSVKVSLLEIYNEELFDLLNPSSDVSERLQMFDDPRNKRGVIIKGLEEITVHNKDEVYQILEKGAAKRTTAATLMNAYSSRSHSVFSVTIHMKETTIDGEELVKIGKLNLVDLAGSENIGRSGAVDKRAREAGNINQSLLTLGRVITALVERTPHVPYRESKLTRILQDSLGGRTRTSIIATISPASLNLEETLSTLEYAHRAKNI
Text: This example provides a representative in vitro assay for determining KSP activity in vitro. Purified microtubules obtained from bovine brain were purchased from Cytoskeleton Inc. (Denver, Colo., USA). The motor domain of human KSP (Eg 5, KNSL1) was cloned, expressed, and purified to greater than 95% homogeneity. Biomol Green was purchased from Affinity Research Products Ltd. (Matford Court, Exeter, Devon, United Kingdom). Microtubules and KSP motor protein (i.e., the KSP motor domain) were diluted in assay buffer (20 mM Tris-HCl (pH 7.5), 1 mM MgCl2, 10 mM DTT and 0.25 mg/mL BSA) to a final concentration of 35 μg/mL microtubules and 45 nM KSP. The microtubule/KSP mixture was then pre-incubated at 37° C. for 10 min to promote the binding of KSP to microtubules.
To each well of the testing plate (384-well plate) containing 1.25 μL of inhibitor or test compound in DMSO (or DMSO only in the case of controls) were added 25 μL of ATP solution (ATP diluted to a concentration of 300 μM in assay buffer) and 25 μL of the above-described microtubule/KSP solution. The plates were incubated at RT for 1 hour. Following incubation, 65 μL of Biomol Green (a malachite green-based dye that detects the release of inorganic phosphate) was added to each well. The plates were incubated for an additional 5-10 minutes then the absorbance at 630 nm was determined using a Victor II plate reader. The amount of absorbance at 630 nm corresponded to the amount of KSP activity in the samples. The IC50 of each inhibitor or test compound was then determined based on the decrease in absorbance at 630 nm at each concentration, via nonlinear regression using either XLFit for Excel or Prism data analysis software by GraphPad Software Inc.

HCT-15 colon carcinoma = test: Inhibition of cellular proliferation in tumor cell lines (CellTiter Glo), HCT-15; format: cell-based; conditions: Homo sapiens; HCT-15, 72 hours of continuous compound exposure; read-out: Cell Base Activity GI50 HCT-15
Procedure: (§1) Cells are plated in 96-well plates at densities of about 500 cells per well of a 96-well plate and are allowed to grow for 24 hours. The cells are then treated with various concentrations of compounds for 72 hours. Then, 100 μl of CellTiter Glo is added. CellTiter Glo is a tetrazolium-based assay using the reagent 3-(4,5-dimethylthiazol-2-yl) 5-(3-carboxymethoxyphenyl)-2-(4-sulfophenyl)-2H-tetrazolium (MTS) (U.S. Pat. No. 5,185,450) (see Promega product catalog #G3580, CellTiter 96 Aqueous One Solution Cell Proliferation Assay). The cells are then incubated in the dark for 30 minutes. The amount of luminescence is determined for each well using a Walloc Trilux plate reader, which correlates with the number of cells per well. The number of viable cells in the wells that receive only DMSO (0.5%) serve as an indication of 0% inhibition, while wells without cells serve as 100% inhibition of cell growth. The compound concentration that results in a 50% growth inhibition (GI50) is determined graphically from sigmoidal dose-response curves of log-transformed dose values versus cell counts (percent of control) at 72 hours of continuous compound exposure.
(§2) The cell lines used are listed below.
(§3) The cell proliferation assay is performed as described above.

HCT-116 colon carcinoma = test: Inhibition of cellular proliferation in tumor cell lines (CellTiter Glo), HCT-116; format: cell-based; conditions: Homo sapiens; HCT-116, 72 hours of continuous compound exposure; read-out: Cell Base Activity GI50 HCT-116
Procedure: as §1, §2, §3

parental cell line = test: Inhibition of cellular proliferation in tumor cell lines (CellTiter Glo), KB3.1; format: cell-based; conditions: Homo sapiens, KB 3-1; KB3.1, 72 hours of continuous compound exposure; read-out: Cell Base Activity GI50 KB3.1
Procedure: as §1, §2, §3

[2] = system: KB8.5 (KB85 - p-glycoprotein associated multi-drug resistant cell line); test: Inhibition of cellular proliferation in tumor cell lines (CellTiter Glo), KB8.5; format: cell-based; conditions: KB8.5, 72 hours of continuous compound exposure; read-out: Cell Base Activity GI50 KB8.5
Procedure: as §1, §2, §3

SMILES | IC50 [1] | GI50 (HCT-15 colon carcinoma) | GI50 (HCT-116 colon carcinoma) | GI50 (parental cell line) | GI50 [2]
CC(C)(C)[C@H](c1nc(-c2ccccc2)cn1Cc1ccccc1)N1CC(CCN)OC1=O (stereo in doubt) [Compound 1, (5R)-5-(2-aminoethyl)-3-[(1R)-1-(1-benzyl-4-phenyl-1H-imidazol-2-yl)-2,2-dimethylpropyl]-1,3-oxazolidin-2-one] | 100 to 1000 nM | > 1000 nM | 100 to 1000 nM | 100 to 1000 nM | > 1000 nM
CC(C)[C@H](c1nc(-c2cccc(Cl)c2)cn1Cc1ccccc1)N1CC(CN)OC1=O (stereo partly drawn) [Compound 3, 5-(aminomethyl)-3-{(1R)-1-[1-benzyl-4-(3-chlorophenyl)-1H-imidazol-2-yl]-2-methylpropyl}-1,3-oxazolidin-2-one] | 100 to 1000 nM | > 1000 nM | > 1000 nM | > 1000 nM | > 1000 nM
CC(C)(C)[C@H](c1nc(-c2ccccc2)cn1Cc1ccccc1)N1C[C@H](CN)COC1=O [Compound 4, (5S)-5-(aminomethyl)-3-[(1R)-1-(1-benzyl-4-phenyl-1H-imidazol-2-yl)-2,2-dimethylpropyl]-1,3-oxazinan-2-one] | 100 to 1000 nM | – | – | > 1000 nM | > 1000 nM
CC(C)(C)[C@H](c1nc(-c2ccccc2)cn1Cc1ccccc1)N1C[C@@H](CN)COC1=O [Compound 5, (5R)-5-(aminomethyl)-3-[(1R)-1-(1-benzyl-4-phenyl-1H-imidazol-2-yl)-2,2-dimethylpropyl]-1,3-oxazinan-2-one] | ≤ 100 nM | – | – | 100 to 1000 nM | 100 to 1000 nM
CC(C)(C)[C@H](c1nc(-c2ccccc2)cn1Cc1ccccc1)N1C[C@H](CN)OCC1=O [Compound 6, (6S)-6-(aminomethyl)-4-[(1R)-1-(1-benzyl-4-phenyl-1H-imidazol-2-yl)-2,2-dimethylpropyl]morpholin-3-one] | 100 to 1000 nM | > 1000 nM | 100 to 1000 nM | 100 to 1000 nM | > 1000 nM
CC(C)(C)[C@H](c1nc(-c2ccccc2)cn1Cc1ccccc1)N1C[C@@H](CN)OCC1=O [Compound 7, (6R)-6-(aminomethyl)-4-[(1R)-1-(1-benzyl-4-phenyl-1H-imidazol-2-yl)-2,2-dimethylpropyl]morpholin-3-one] | ≤ 100 nM | 100 to 1000 nM | 100 to 1000 nM | 100 to 1000 nM | 100 to 1000 nM
CC(C)[C@H](c1nc(-c2cccc(Cl)c2)cn1Cc1ccccc1)N1C[C@@H](CN)OCC1=O [Compound 8, (6R)-6-(aminomethyl)-4-{(1R)-1-[1-benzyl-4-(3-chlorophenyl)-1H-imidazol-2-yl]-2-methylpropyl}morpholin-3-one] | > 1000 nM | – | – | – | –
CC(C)[C@H](c1nc(-c2cccc(Cl)c2)cn1Cc1ccccc1)N1C[C@H](CN)OCC1=O [Compound 9, (6S)-6-(aminomethyl)-4-{(1R)-1-[1-benzyl-4-(3-chlorophenyl)-1H-imidazol-2-yl]-2-methylpropyl}morpholin-3-one] | > 1000 nM | 100 to 1000 nM | 100 to 1000 nM | 100 to 1000 nM | > 1000 nM
CC(C)(C)[C@H](c1nc(-c2ccccc2)cn1Cc1ccccc1)N1C[C@@H](CCN)OCC1=O [Compound 10, (6R)-6-(2-aminoethyl)-4-[(1R)-1-(1-benzyl-4-phenyl-1H-imidazol-2-yl)-2,2-dimethylpropyl]morpholin-3-one] | 100 to 1000 nM | – | – | – | –
CC(C)(C)[C@H](c1nc(-c2ccccc2)cn1Cc1ccccc1)N1C[C@H](CCN)OCC1=O [Compound 11, (6S)-6-(2-aminoethyl)-4-[(1R)-1-(1-benzyl-4-phenyl-1H-imidazol-2-yl)-2,2-dimethylpropyl]morpholin-3-one] | 100 to 1000 nM | – | – | – | –
CC(C)[C@H](c1nc(-c2cccc(Cl)c2)cn1Cc1ccccc1)N1C[C@H](CCN)OCC1=O [Compound 12, (6S)-6-(2-aminoethyl)-4-{(1R)-1-[1-benzyl-4-(3-chlorophenyl)-1H-imidazol-2-yl]-2-methylpropyl}morpholin-3-one] | > 1000 nM | – | – | – | –
CC(C)(C)[C@H](c1nc(-c2ccccc2)cn1Cc1ccccc1)N1C[C@@H](CO)NCCC1=O [Compound 19, (2S)-4-[(1R)-1-(1-benzyl-4-phenyl-1H-imidazol-2-yl)-2,2-dimethylpropyl]-2-(hydroxymethyl)-1,4-diazepan-5-one] | 100 to 1000 nM | – | – | > 1000 nM | > 1000 nM
CC(C)(C)[C@H](c1nc(-c2ccccc2)cn1Cc1ccccc1)N1C[C@@H](CN)N(S(C)(=O)=O)CCC1=O [Compound 21, (2R)-2-(aminomethyl)-4-[(1R)-1-(1-benzyl-4-phenyl-1H-imidazol-2-yl)-2,2-dimethylpropyl]-1-(methylsulfonyl)-1,4-diazepan-5-one] | ≤ 100 nM | – | – | ≤ 100 nM | > 1000 nM
CC(C)(C)[C@H](c1nc(-c2ccccc2)cn1Cc1ccccc1)N1C[C@H](CN)OCCC1=O [Compound 22, (2S)-2-(aminomethyl)-4-[(1R)-1-(1-benzyl-4-phenyl-1H-imidazol-2-yl)-2,2-dimethylpropyl]-1,4-oxazepan-5-one] | 100 to 1000 nM | – | – | > 1000 nM | > 1000 nM
CC(C)(C)[C@H](c1nc(-c2ccccc2)cn1Cc1ccccc1)N1C[C@H](CN)COCC1=O [Compound 24, (6S)-6-(aminomethyl)-4-[(1R)-1-(1-benzyl-4-phenyl-1H-imidazol-2-yl)-2,2-dimethylpropyl]-1,4-oxazepan-3-one] | ≤ 100 nM | – | – | 100 to 1000 nM | 100 to 1000 nM
CC(C)(C)[C@H](c1nc(-c2cccc(F)c2)cn1Cc1cc(F)cc(F)c1)N1C[C@@H](CN)COCC1=O [Compound 26, (6R)-6-(aminomethyl)-4-{(1R)-1-[1-(3,5-difluorobenzyl)-4-(3-fluorophenyl)-1H-imidazol-2-yl]-2,2-dimethylpropyl}-1,4-oxazepan-3-one] | ≤ 100 nM | – | 100 to 1000 nM | 100 to 1000 nM | 100 to 1000 nM
CC(C)(C)[C@H](c1nc(-c2ccccc2)cn1Cc1ccccc1)N1C[C@@H](CN)CNC(=O)C1=O [Compound 30, (6S)-6-(aminomethyl)-1-[(1R)-1-(1-benzyl-4-phenyl-1H-imidazol-2-yl)-2,2-dimethylpropyl]-1,4-diazepane-2,3-dione] | ≤ 100 nM | – | – | – | –
CC(C)(C)[C@H](c1nc(-c2ccccc2)cn1Cc1ccccc1)N1C[C@H](F)CNCC1=O [Compound 31, (6R)-1-[(1R)-1-(1-benzyl-4-phenyl-1H-imidazol-2-yl)-2,2-dimethylpropyl]-6-fluoro-1,4-diazepan-2-one] | 100 to 1000 nM | – | – | – | –
CC(C)(C)[C@H](c1nc(-c2ccccc2)cn1Cc1ccccc1)N1C[C@@H](F)CNCC1=O [Compound 32, (6S)-1-[(1R)-1-(1-benzyl-4-phenyl-1H-imidazol-2-yl)-2,2-dimethylpropyl]-6-fluoro-1,4-diazepan-2-one] | 100 to 1000 nM | – | – | > 1000 nM | > 1000 nM
